The text below walks through data of ChEMBL document CHEMBL4715805, “Structure-Activity Relationship for Sulfonamide Inhibition of Helicobacter pylori α-Carbonic Anhydrase” (J Med Chem, 2016).

This assay in a line: Inhibition of Helicobacter pylori alpha-carbonic anhydrase expressed in Escherichia coli assessed as inhibition constant preincubated for 15 mins prior to testing by phenol red-based stopped-flow CO2 hydration assay.

With `Cn1nc(S(N)(=O)=O)s/c1=N/S(=O)(=O)c1ccc(C(C)(C)C)cc1`, the Ki (as a rule, a measure of affinity in units of concentration, obtained from inhibition or displacement) was found to be 8.2 nM.
